From patent US11535597B2, “Photoreactive ligands and uses thereof” (The Scripps Research Institute, priority 2017, dated 2022)
“Also recorded” adds a separate entry of the source.

Legend:
PTGR2 = PTGR2 (Homo sapiens, UniProt Q8N8N7); experiment: In vitro LCMS-based activity assay for PTGR2 (15-keto-PGE2 reductase activity); assay type: biochemical
Method: Aliquots (1 μL) of test compounds dissolved in DMSO were transferred to 1.5 mL eppendorf tubes followed by addition of recombinant human PTGR2 (44 μL, 200 nM final concentration) in freshly prepared reaction buffer (Tris Buffer, 1 mM EDTA, 50 μM TCEP, 300 μM NADPH). The resulting mixture was vortexed and then incubated at 37° C. for 20 min. Next, a 5 μL solution of 15-keto-PGE2 substrate (20 μM final concentration) in reaction buffer was added and the reaction was allowed to proceed for 30 min at 37° C. Reactions were quenched by the addition of 0.5% AcOH in ethyl acetate (800 μL), water (300 μL) and 100 μL of internal standard PGE2-d4 (30 pmol/sample) dissolved in 1:1 methanol/water. Phases were separated by centrifugation and the organic layer was collected and dried under a stream of N2, then stored at −80° C. until analysis. Directly prior to analysis, samples were reconstituted in 100 μL of MeCN:H2O (1:1, v/v) and analyzed by LC/MS/MS. All conditions were performed in triplicate and repeated at least three independent times.
The following MS parameters were used to measure the indicated metabolites by MRM (precursor ion, product ion, collision energy, polarity): PGE2-d4 (355, 275, 18), 13,14-dihydro-15-keto-PGE2 (351, 333, 18) and 15-keto-PGE2 (349, 161, 20). 15-keto-PGE2 and 13,14-dihydro-15-keto-PGE2 levels were quantified by determining peak areas in relation to internal standard PGE2-d4. Non-deuterated 15-keto-PGE2 and 13,14-dihydro-15-keto-PGE2 standards were used to confirm retention time and fragmentation.
All data fitting and statistical analysis performed using GraphPad Prism version 6.00 for Windows, GraphPad Software, La Jolla Calif. USA, www.graphpad.com. Statistical values including the exact n and statistical significance are also reported. Probe binding blockade and PTGR2 inhibition curves are plotted as mean±SD (n=3 or 4 per group) for a representative biological replicate using a variable slope (four parameter) non-linear fit. Gene expression data are presented as mean±SD (n=3 per group). HSC5 metabolite data are shown as mean±SD (n=3 per group). Statistical significance was defined as P<0.05 and determined by 2-tailed Student t tests, or two-way ANOVA with Bonferroni's post-tests.

PPARγ = target: T1, PPARγ (Homo sapiens, UniProt P37231); experiment: GAL4-PPARγ luciferase reporter assay with empty control vector in HEK293T cells; assay type: cell-based; conditions: GAL4-PPARγ luciferase reporter and empty control vector
T1 construct: expressed in transfected cells; host or cells: HEK293T
T1 sequence (P37231 238-503 limits assumed): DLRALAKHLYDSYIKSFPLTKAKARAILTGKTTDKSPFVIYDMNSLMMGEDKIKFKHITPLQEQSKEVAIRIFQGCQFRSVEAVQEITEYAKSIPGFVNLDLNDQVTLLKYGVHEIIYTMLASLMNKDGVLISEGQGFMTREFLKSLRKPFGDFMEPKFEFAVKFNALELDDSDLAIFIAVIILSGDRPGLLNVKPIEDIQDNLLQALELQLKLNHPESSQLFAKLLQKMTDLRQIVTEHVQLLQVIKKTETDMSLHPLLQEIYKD
Method: HEK293T cells were transiently co-transfected using Polyethylenimine (Sigma) with a UAS-Luciferase reporter and a vector expressing the heterologous GAL4 DNA binding domain (DBD) or a GAL4 DNA binding domain::PPARγ ligand binding domain (LBD) chimeric protein, and full-length PTGR2. 24 hr after transfection, cells were treated either with vehicle (DMSO), 15k-PGE2 (20 μM), or fragment compounds. Rosiglitazone (2 μM), a synthetic PPARγ ligand, was used as control. 16 hr after incubation, cells were lysed in Cell Culture Lysis Reagent (Promega) and luciferase activity measured using the Luciferase Assay System (Promega).

Sequence of PTGR2 (Q8N8N7 whole entry): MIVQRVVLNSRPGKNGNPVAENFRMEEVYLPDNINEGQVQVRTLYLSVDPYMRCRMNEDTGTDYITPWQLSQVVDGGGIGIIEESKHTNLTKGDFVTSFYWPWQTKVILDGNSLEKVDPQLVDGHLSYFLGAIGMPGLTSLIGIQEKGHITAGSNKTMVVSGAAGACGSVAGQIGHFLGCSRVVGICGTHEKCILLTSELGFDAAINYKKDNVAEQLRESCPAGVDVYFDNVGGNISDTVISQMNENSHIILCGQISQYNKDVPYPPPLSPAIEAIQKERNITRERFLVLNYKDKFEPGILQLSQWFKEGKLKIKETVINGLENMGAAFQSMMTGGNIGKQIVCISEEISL

COc1ccccc1N1CCN(C(=O)Cc2ccccc2)CC1 [Compound 22, 1-(4-(2-Methoxyphenyl)piperazin-1-yl)-2-phenylethan-1-one]
effect on 15-keto-PGE2 reductase (catalytic) activity of recombinant PTGR2 (PTGR2): inhibited
increased potency relative to 20 (PTGR2; in assays measuring either competition of 8-labeling or 15-keto-PGE2 reductase activity of recombinant PTGR2): > 20 fold
IC50 (PTGR2; recombinant PTGR2, read-out: IC50 for inhibition of PTGR2-mediated reduction of 15-keto-PGE2 (15-keto-PGE2 reductase activity)): 0.6 µM
direct modulation of PPARγ transcriptional activity (PPARγ): do not directly induce; also recorded: Neither 22 nor 23 directly modulated
